Source: patent US20260315505A1, “COMBINED INHIBITION OF TYROSINE PHOSPHATASES TCPTP AND PTP1B AND PD-1 BLOCKAGE IMMUNOTHERAPY IN THE TREATMENT OF CANCER” (Kanyr Pharma Inc., priority 2022, published 2026)
Like-named read-outs stand apart in the source and are kept apart here.

How the values were obtained:
[1] = humans; phase 1 clinical studies; cited from earlier work
[2] = system: E.G7 targets (lysis by CD8 T cells / CTLs); assay: in vitro cytotoxicity of CTLs against OVA expressing E.G7 thymoma cells; format: cell-based, mouse; conditions: C57BL/6 CTLs; relative to Inh1; FIG. 12C
From the text: FIG. 5A Illustrates that pharmacological inhibition of TCPTP and PTP1B results in enhanced cytotoxicity and effector differentiation. CD8 T cells from OT-1 mice were activated/expanded by αCD3/αCD28 antibodies and IL-2 in the presence of different concentrations of TCPTP/PTP1B inhibitor (Inh1) for 5 days. Specific cytotoxicity against OVA expressing E.G7 thymoma cells was measure.
FIG. 12C illustrates the specific cytotoxicity against OVA expressing E.G7 thymoma cells from 5-day C57BL/6 CTLs treated with Inh1 or Inh2 at the concentrations specified. (one of three experiments shown).
To understand the functional capabilities of the CD8 T cells with combined deficiency of TCPTP and PTP1B, the conditional mutant mice of Example 1 were bred with OT-1 transgenic mice. […] Effector CD8 T cells also contribute to the immune response by the secretion of cytokines as IFN-γ, consequently the presence of this cytokine in the supernatant of target cell stimulated CTLs by ELISA was measured. An increase of the secretion of IFN-γ was detected in TCPTP and PTP1B single deficient cells at low effector to target ratios which was more stepped in the […] cells (FIG. 3C). […]
As the differentiation state of CD8 T cells was altered in the various genotypes analyzed before, how treatment with Inh1 altered the expression of differentiation markers was determined by flow cytometric analysis (FIGS. 5D and 5E). […]

[3] = mice; cited from earlier work

N#CCc1ccc2cc(Br)c(C(F)(F)P(=O)(O)O)cc2c1 [Inh2]
systemic tolerability [1]: tolerated systemically
concentration inducing similar biological activity to Inh1 [2]: 5 times lower
systemic tolerability [3]: tolerated systemically
